Measurements published in US10421779B2, “Carbazole compound having anti-virus activity” (priority 2016, dated 2019).

Experiments:
Format in all cases: cell-based
[1] = test system: HCV genotype 1 b (HCV replicon system); test: HCV replicon system genotype 1b, Renilla luciferase activity; conditions: Hepatitis C virus, 72 h; HCV genotype 1b replicon, Rluc, 3 days; read-out: Replicon EC50 1b type
Description: (§1) From human liver cells (Huh7.5.1 cell) infected by hepatitis C virus, the anti-virus effects by the compound of the present invention were measured. From HCV genotype 1 b (HCV replicon system), genotype 2a (HCV cell culture system, HCVcc), and genotype 3a, the EC50 values were measured.
In order to measure the EC50 value from HCV genotype 1 b, the degrees of HCV replication inhibitory activities of an experimental compound were measured. The EC50 value was measured by treating the experimental compound with the HCV replicon systems (genotype 1 b) having Renilla luciferase (Rluc) genes and genotype 1 b non-structure genes under various concentration conditions to compare the activity degree of the luciferase after 3 days elapsed time with that of the control.

[2] = test system: HCV genotype 2a (HCV cell culture system, HCVcc); test: HCVcc genotype 2a JFH1 (JFH 5a-Rluc) virus in Huh7.5.1 cells, luciferase assay; conditions: Hepatitis C virus, Huh-7.5.1, 72 h, HCV genotype 2a JFH 5a-Rluc, 3 days, read-out: Replicon EC50 2a type
Description: as §1
In order to measure the EC50 value from HCV genotype 2a, a luciferase assay was used. A JFH1 clone (JFH 5a-Rluc) virus constructed to have a Renilla luciferase enzyme (Rluc) gene in NS5A protein was infected with Huh7.5.1 cell being a host cell, and then the EC50 value was measured by taking cells grown for 3 days by treating the experimental compound under various concentration conditions, and analyzing the activity degree of the luciferase.

[3] = test system: hepatitis C virus mutant L31V of the NS5A region; test: Efficacy on resistant mutant L31V; conditions: read-out: EC50 L31V
From the text: (§2) As a mutant resistant to hepatitis C virus, L31V and Y93H of the NS5A region, and double mutants thereof were applied.

[4] = test system: HCV genotype 3a (HCV replicon system); test: HCV replicon system genotype 3a, firefly luciferase activity; conditions: Hepatitis C virus, 72 h; HCV genotype 3a replicon, Fluc, 3 days; read-out: Replicon EC50 3a type
Description: as §1
In order to measure the EC50 value from genotype 3a, the value was measured through the luciferase activity. A HCV replicon system having firefly luciferase (Fluc) genes and genotype 3a non-structure genes was used. The HCV replicon system having the genes as described above was used to treat the experimental compound under various concentration conditions, and then 3 days later, the EC50 value was measured by comparing the luciferase activity with that of the control.

[5] = test system: hepatitis C virus mutant Y93H of the NS5A region; test: Efficacy on resistant mutant Y93H; conditions: read-out: EC50 Y93H
From the text: as §2

Row | SMILES | EC50 [1] | EC50 [2] | EC50 [3] | EC50 [4] | EC50 [5]
1 | CCCCCCCCn1c2cc(NC(=O)[C@@H]3CCCN3C(=O)[C@H](NC(=O)OC)c3ccccc3)ccc2c2ccc(NC(=O)[C@@H]3CCCN3C(=O)[C@H](NC(=O)OC)c3ccccc3)cc21 [Example 26, dimethyl ((1R,1′R)-((2S,2′S)-(((9-octyl-9H-carbazole-2,7-diyl)bis(azanediyl))bis(carbonyl))bis(pyrrolidine-2,1-diyl))bis(2-oxo-1-phenylethane-2,1-diyl))dicarbamate] | 0.00792 nM | 10 to 100 nM | 1 to 10 nM |  | 
2 | CCCCCCCCCCCCn1c2cc(NC(=O)[C@@H]3CCCN3C(=O)[C@H](NC(=O)OC)c3ccccc3)ccc2c2ccc(NC(=O)[C@@H]3CCCN3C(=O)[C@H](NC(=O)OC)c3ccccc3)cc21 [Example 27, dimethyl ((1R,1′R)-((2S,2′S)-(((9-dodecyl-9H-carbazole-2,7-diyl)bis(azanediyl))bis(carbonyl))bis(pyrrolidine-2,1-diyl))bis(2-oxo-1-phenylethane-2,1-diyl))dicarbamate] | 0.00185 nM | 10 to 100 nM | 0.1 to 1 nM |  | 
3 | CCCC(c1ccccc1)n1c2cc(NC(=O)[C@@H]3CCCN3C(=O)[C@H](NC(=O)OC)c3ccccc3)ccc2c2ccc(NC(=O)[C@@H]3CCCN3C(=O)[C@H](NC(=O)OC)c3ccccc3)cc21 (stereo partly drawn) [Example 28, dimethyl ((1R,1′R)-((2S,2′S)-(((9-(1-phenylbutyl)-9H-carbazole-2,7-diyl)bis(azanediyl))bis(carbonyl))bis(pyrrolidine-2,1-diyl))bis(2-oxo-1-phenylethane-2,1-diyl))dicarbamate] | 0.00452 nM | 1 to 10 nM | < 0.1 nM |  | 
4 | CCCCCCOc1ccc(Cn2c3cc(NC(=O)[C@@H]4CCCN4C(=O)[C@H](NC(=O)OC)c4ccccc4)ccc3c3ccc(NC(=O)[C@@H]4CCCN4C(=O)[C@H](NC(=O)OC)c4ccccc4)cc32)cc1 [Example 31, dimethyl ((1R,1′R)-((2S,2′S)-(((9-(4-(hexyloxy)benzyl)-9H-carbonyl-2,7-diyl)bis(azanediyl))bis(carbonyl))bis(pyrrolidine-2,1-diyl))bis(2-oxo-1-phenylethane-2,1-diyl))dicarbamate] | ~0.01 nM | 1 to 10 nM | < 0.1 nM | ~0.01 nM | 10 to 100 nM
5 | CCCCOc1ccc(Cn2c3cc(NC(=O)[C@@H]4CCCN4C(=O)[C@H](NC(=O)OC)c4ccccc4)ccc3c3ccc(NC(=O)[C@@H]4CCCN4C(=O)[C@H](NC(=O)OC)c4ccccc4)cc32)cc1 [Example 36, dimethyl ((1R,1′R)-((2S,2′S)-(((9-(4-butoxybenzyl)-9H-carbazole-2,7-diyl)bis(azanediyl))bis(carbonyl))bis(pyrrolidine-2,1-diyl))bis(2-oxo-1-phenylethane-2,1-diyl))dicarbamate] | 0.00326 nM |  | 0.1 to 1 nM | 0.0126 nM | 100 to 1000 nM
6 | COC(=O)N[C@@H](C(=O)N1CCC[C@H]1C(=O)Nc1ccc2c3ccc(NC(=O)[C@@H]4CCCN4C(=O)[C@H](NC(=O)OC)c4ccccc4)cc3n(Cc3cccc(OC4CCCC4)c3)c2c1)c1ccccc1 [Example 39, dimethyl ((1R,1′R)-((2S,2′S)-(((9-(3-(cyclopentyloxy)benzyl)-9H-carbazole-2,7-diyl)bis(azanediyl))bis(carbonyl))bis(pyrrolidine-2,1-diyl))bis(2-oxo-1-phenylethane-2,1-diyl))dicarbamate] | 0.00113 nM |  | 0.1 to 1 nM | 0.00638 nM | 100 to 1000 nM
7 | COCCOc1cccc(Cn2c3cc(NC(=O)[C@@H]4CCCN4C(=O)[C@H](NC(=O)OC)c4ccccc4)ccc3c3ccc(NC(=O)[C@@H]4CCCN4C(=O)[C@H](NC(=O)OC)c4ccccc4)cc32)c1 [Example 41, dimethyl ((1R,1′R)-((2S,2′S)-(((9-(3-(2-methoxyethoxy)benzyl)-9H-carbazole-2,7-diyl)bis(azanediyl))bis(carbonyl))bis(pyrrolidine-2,1-diyl))bis(2-oxo-1-phenylethane-2,1-diyl))dicarbamate] | 0.00965 nM |  | 0.1 to 1 nM | 0.0419 nM | > 1000 nM
8 | COC(=O)N[C@@H](C(=O)N1CCC[C@H]1C(=O)Nc1ccc2c3ccc(NC(=O)[C@@H]4CCCN4C(=O)[C@H](NC(=O)OC)c4ccccc4)cc3n(Cc3cccc(C(F)(F)F)c3)c2c1)c1ccccc1 [Example 44, dimethyl ((1R,1′R)-((2S,2′S)-(((9-(3-(trifluoromethyl)benzyl)-9H-carbazole-2,7-diyl)bis(azanediyl))bis(carbonyl))bis(pyrrolidine-2,1-diyl))bis(2-oxo-1-phenylethane-2,1-diyl))dicarbamate] | ~0.01 nM | > 10 nM |  | 0.01 to 0.1 nM | 
9 | COC(=O)N[C@@H](C(=O)N1CCC[C@H]1C(=O)Nc1ccc2c3ccc(NC(=O)[C@@H]4CCCN4C(=O)[C@H](NC(=O)OC)c4ccccc4)cc3n(Cc3ccc(C(F)(F)F)cc3)c2c1)c1ccccc1 [Example 45, dimethyl ((1R,1′R)-((2S,2′S)-(((9-(4-(trifluoromethyl)benzyl)-9H-carbazole-2,7-diyl)bis(azanediyl))bis(carbonyl))bis(pyrrolidine-2,1-diyl))bis(2-oxo-1-phenylethane-2,1-diyl))dicarbamate] | ~0.01 nM | > 10 nM |  | 0.199 nM | 
10 | COC(=O)N[C@@H](C(=O)N1CCC[C@H]1C(=O)Nc1ccc2c3ccc(NC(=O)[C@@H]4CCCN4C(=O)[C@H](NC(=O)OC)c4ccccc4)cc3n(C(C3CC3)C3CC3)c2c1)c1ccccc1 [Example 49, dimethyl ((1R,1′R)-((2S,2′S)-(((9-(dicyclopropylmethyl)-9H-carbazole-2,7-diyl)bis(azanediyl))bis(carbonyl))bis(pyrrolidine-2,1-diyl))bis(2-oxo-1-phenylethane-2,1-diyl))dicarbamate] | 0.0084 nM | > 10 nM |  | 0.0766 nM | 
11 | CCCCn1c2cc(NC(=O)[C@@H]3CCCN3C(=O)[C@H](NC(=O)OC)c3ccccc3)ccc2c2ccc(-c3c[nH]c([C@@H]4CCCN4C(=O)[C@H](NC(=O)OC)c4ccccc4)n3)cc21 [Example 51, methyl ((R)-2-((S)-2-((9-butyl-7-(2-((S)-1-((R)-2-((methoxycarbonyl)amino)-2-phenylacetyl)pyrrolidine-2-yl)-1H-imidazole-4-yl)-9H-carbazole-2-yl)carbamoyl)pyrrolidine-1-yl)-2-oxo-1-phenylethyl)carbamate] | 0.0145 nM | 0.387 nM |  | 0.193 nM | 
12 | CCCCn1c2cc(NC(=O)[C@@H]3CCCN3C(=O)[C@H](NC(=O)OC)c3ccccc3)ccc2c2ccc(-c3c[nH]c([C@@H]4CCCN4C(=O)[C@@H](NC(=O)OC)C(C)C)n3)cc21 [Example 52, methyl ((R)-2-((S)-2-((9-butyl-7-(2-((S)-1-((methoxycarbonyl)-L-valyl)pyrrolidine-2-yl)-1H-imidazole-4-yl)-9H-carbazole-2-yl)carbamoyl)pyrrolidine-1-yl)-2-oxo-1-phenylethyl)carbamate] | 0.0123 nM | 0.171 nM |  | 0.148 nM | 
